Article PMC5730604
Positions of bridges follow the written chain, without caps; N, C: chain ends. Non-standard residues stand in square brackets, D forms with d. Residues, ends and D or L forms follow the SMILES beside them. Chains are numbered I, II in the order given. *: point of attachment. PEG28 = NCCOCCOCCOCCOCCOCCOCCOCCOCCOCCOCCOCCOCCOCCOCCOCCOCCOCCOCCOCCOCCOCCOCCOCCOCCOCCOCCOCCOCCC(=O)O; Tyr(3-NO2) = N[C@@H](Cc1ccc(O)c([N+](=O)[O-])c1)C(=O)O; Hyp = O=C(O)[C@@H]1C[C@@H](O)CN1; For = O=C*

How the values were obtained:
guinea pig skin = test: Local skin inflammation model, immune cell infiltration; type: in vivo; conditions: s.c. 100 nmol
Method: (§1) Animals: Eighth Edition. W ashington, DC: The National Academies Press, 2011) were […]
(§2) Committee (LANUV AZ. 87- 51.04.2010.A278). All experiments were performed in the Institute […]
(§3) GmbH (Sulzf eld, Germany) were used. Mice were housed in individual ventilated cages under […]
(§4) humidity and a 12h dark/light cycle.
(§5) Soest, Germany) was given ad libitum. Guinea pigs were housed in conventional open cages in the same way as describe for mice. Animals were allowed to acclimatize to their […]
(§6) additional immunohistochemical stainings with antibodies against granulocytes/monocytes

mouse skin = test: as above; type: in vivo; conditions: immune-deficient Balb/c nu/nu mice, s.c., 200 nmol to 500 nmol, 24 h
Method: as §1, §2, §3, §4, §5, §6

[1] = test system: A431, U-87 or HT-29 cells; test: MTT assay; type: cell-based, Human; conditions: 100 nM to 10 µM, 24 h or 72 h, A431, U-87, HT-29 cells, triplicates
Method: were recorded at 278 K and referenced to the water signal. Spectra were assigned with CCPNMR1 using the sequential assignment protocol. Secondary Hα chemical shif ts were calculated as the difference between the measured Hα chemical shift and the respective random coil shif t.2 Random coil shifts were temperature corrected using the correction factors calculated by Kjaergaard et al.3 For the D-amino acids, the random coil shift of the respective L-amino acid was used, the random coil shif t of Tyr was used for Tyr(3-NO2) and 4.54 ppm was used f or Hyp Hα . Oxid ized Y9 (MW 5268.0) was prepared by dissolving Y9 in Na2HPO4 buff er (50 mM, pH 7.0). After HPLC purif ication, the oxidized Y9 (2.1 mg) was dissolved in 90% H2O/10% D2O (500 µL) at pH 2.9 and NMR spectra were acquired as described above. […]
Stained cells were analyzed by f low cytometr y. […]
At the end of the incubation period (24 h or 72 h at 37°C in 5% CO2) cells were 30- 80% conf luent. […] 04M HCl were added and absorbances were measured at 595 nm.
Absorbances were plotted against the agent’s concentrations. A high absorbance value […]
present in the well as compared to wells with low absorbance values.
Figure S13 : MTT assays showing no ef f ect of Y9 and sc- Y9 on the viability and prolif eration of diff erent tumor cell lines. […] To indicate background: the absorbance values of medium without cells were between 0.11 and […]

[2] = fresh mouse serum, 60 µM, extraction and RP-HPLC (C4) quantification at 214 and 375 nm
Method: vor t exing the sample was incubated f or 48 h. At specif ic time points, the solution was again
vortexed, a sample (95 µl) was withdra wn and subjected to ultraf iltration (Vivaspin 500, 10 k Da
cutoff; 15 min, 16,000 g). The f iltrate was put on ice while the f ilter remainder was mixed with
an equal volume of ethanol (95%), vortexed and centrifuged (5 min, 16.000 g). W ith the
resulting supernatant, this procedure was repeated. The f inal supernatant was mixed with an
equal volume of f iltrate, shock frozen in liq uid nitr og en and stored at - 80 °C until analysis. RP -
HPLC analysis was performed using an analytical C4- RP column with a gradient of 5-65%
absorption at 214 and 375 nm (specif ic absorption maximum of the nitro-tyrosine building block
The absorption peak observed at the

in vivo = conditions: mouse, serum, sc
Method: according to standard procedures. From 20 ml antiserum, 1.5 mg purified antibody were
isolated and stored in aliquots at -20 °C in PBS + 0.01% thimerosal, 0.1% BSA diluted 1:1 with
glycerin (f inal concentration 227 µg/ml).
on a nitrocellulose membrane.
concentrations between 0.5 nM and 20 nM and s amples were also spotted in triplicates. After
drying, the membrane was soaked in TBST (150 mM NaCl, 50 mM Tris-HCl, pH 7.4, 0.05%
tween), blocked for 1 h at RT with 5% nonfat dry milk in TBST. The membrane was washed 3
1:2000 in TBST, washed 3 times, incubated 1 h at RT with anti-rabbit-HRP (GE Healthcare)
diluted 1:5,000 in 5% nonf at dry milk in TBST. The membrane was f inally washed 3 times in
TBST and then incubated with ECL prime substrate (GE Healthcare). Chemiluminescent
signals were recorded in an LAS-4000 mini Image reader (Fuji). Spot intensities were
quantitated using Image J software. The calibration samples were used to prepare a linear
For the statistical analysis, mean (M) and standard deviation (SD) were calculated. T he
statistical analysis was p erf ormed with the GraphPad Prism Software, Version 5.0 (Graph Pad,
values of < 0.05 were considered signif icant.

Compound: CC[C@H](C)[C@H](NC(=O)[C@H](CCSC)NC=O)C(=O)N[C@@H](Cc1ccccc1)C(=O)N[C@@H](CC(C)C)C(=O)NCC(=O)NCC(=O)N[C@@H](CCCCNC(=O)CCOCCOCCOCCOCCOCCOCCOCCOCCOCCOCCOCCOCCOCCOCCOCCOCCOCCOCCOCCOCCOCCOCCOCCOCCOCCOCCOCCOCCNC(=O)[C@H]1CSSC[C@@H](N)C(=O)N[C@H](CC(=O)O)C(=O)NCC(=O)N[C@@H](Cc2ccc(O)c([N+](=O)[O-])c2)C(=O)NCC(=O)N2C[C@H](O)C[C@H]2C(=O)N[C@@H](CC(N)=O)C(=O)N1)C(=O)N[C@@H](CCCCNC(=O)CCOCCOCCOCCOCCOCCOCCOCCOCCOCCOCCOCCOCCOCCOCCOCCOCCOCCOCCOCCOCCOCCOCCOCCOCCOCCOCCOCCOCCNC(=O)[C@H]1CSSC[C@@H](N)C(=O)N[C@H](CC(=O)O)C(=O)NCC(=O)N[C@@H](Cc2ccc(O)c([N+](=O)[O-])c2)C(=O)NCC(=O)N2C[C@H](O)C[C@H]2C(=O)N[C@@H](CC(N)=O)C(=O)N1)C(=O)O [Y9] (I: H-[dC][dD]G[Tyr(3-NO2)]G[Hyp]N[dC][PEG28] / II: H-[dC][dD]G[Tyr(3-NO2)]G[Hyp]N[dC][PEG28] / III: For-MIFLGGKK-OH; disulfide I:1-I:8, II:1-II:8; amide I:C-III:7, II:C-III:8)
- immune infiltrate (guinea pig skin; guinea pigs immune suppressed by four weekly injections of cyclophosphamide): less intense
- immune cell infiltration into the injection site (guinea pig skin; guinea pigs, 24 h): most pronounced
- immune infiltrates (mouse skin): dose-dependent increases in immune infiltrates
- effect on viability and proliferation (MTT) [1]: No effect
- time Y9 remains largely intact [2]: > 24 h
- half-life (in vivo): ~2 h
- level at time molar at 1 h (in vivo; 200 nmol): 0.35 µM
- level at time molar at 7 h (in vivo; 200 nmol): 0.075 µM
